Tests used:
[1] = test system: PylRS/tRNACUA pair; assay: Site-specific incorporation into sfGFP150TAG expressed in E. coli; format: cell-based, Methanosarcina barkeri
Procedure: FIG. 2A: The PylRS/RNACUA pair directs efficient, site-specific incorporation of 3 into sfGFP bearing an amber stop codon at position 150.
Expression and purification of sfGFP-3 from E. coli Electrocompetent E. coli DH10B cells were co-transformed with pBK-MbPylRS and psfGFP150TAG PyIT^14, 26. Transformed cells were recovered in S.O.B. (1 mL, supplemented with 0.2% glucose) for 1 h at 37° C. and used to inoculate LB containing 50 μg/mL kanamycin and 25 μg/mL tetracycline (LB-KT). The cells were incubated with shaking overnight at 37° C., 250 r.p.m. 1 mL of overnight culture was used to inoculate 100 mL of LB-KT½, the day culture was then incubated (37° C., 250 r.p.m). At O.D.600˜0.3, the culture was divided equally and supplemented with either 3 (1 mM) or H2O (500 μL) and incubated further (37° C., 250 r.p.m). At O.D.600˜0.6 protein expression was induced by the addition of arabinose (0.2%), after 4 h, the cells were harvested by centrifugation (4000 r.p.m, 20 min) and the pellet frozen until further use.
The frozen bacterial pellet was thawed on ice and resuspended in 2.5 mL lysis buffer (Bugbuster®, Novagen®, 50 μg/mL DNAse 1, Roche inhibitor cocktail and 20 mM imidazole). Cells were incubated (4° C., 30 minutes) then clarified by centrifugation (16000 g, 4° C., 30 minutes). The clarified lysates were transferred to fresh tubes and 100 μL Ni-NTA slurry added. The mixtures was incubated with agitation (4° C., 1 h) and then collected by centrifugation (1000 g, 4° C., 5 min). The beads were resuspended three times in 500 μL wash buffer (10 mM Tris-HCL, 40 mM imidazole, 200 mM NaCl, pH 8) and collected by centrifugation (1000 g, 4° C., 5 min). Finally, the beads were resuspended in 100 μL, elution buffer (10 mM Tris-HCL, 300 mM imidazole, 200 mM NaCl, pH 8), pelleted by centrifugation (1000 g, 4° C., 5 min) and the supernatant collected into fresh tubes. The elution was repeated three times with 100 μL of elution buffer. The purified proteins were analysed by 4-12% SDS-PAGE and LC-MS.

[2] = test system: PylRS, PyltRNAUUU; assay: Time-dependent proteome incorporation of 3 via SORT-M in E. coli, detected with 4a; format: cell-based; conditions: AAA codon, detection with 4a
Procedure: Chemically competent DH10B cells were transformed with two plasmids: pBKwtPylRS necessary for expression of PylRS, and pBAD_wtT4LMbPylTUUU plasmid that is required for expression of PyltRNAUUU. pBAD_wtT4L_MbPylTUUU plasmid also contains the gene for expression of T4 lysozyme that is downstream of arabinose-inducible promoter. After transformation, cells were recovered in 1 ml SOB medium for one hour at 37° C. prior to inoculation in 10 ml LB-KT (LB media with 50 μg ml^−1 kanamycin, and 25 μg tetracycline). The culture was incubated overnight (37° C., 250 rpm, 12 h) and subsequently diluted to an OD600˜0.3 in 30 mL LB-KT1/2 (LB media with 25 μg ml^−1 kanamycin, and 12.5 μg ml^−1 tetracycline) supplemented with 3 at different concentrations, 0, 0.1, 0.5 mM. The cultures was incubated (37° C., 250 rpm) for 1 h, when OD600 reached approximately 0.6. 2 ml culture aliquot was collected in a separate tube for each of three cultures. This is the pre-induction culture (lane labelled as 1 in the gel image). Subsequently arabinose was added at a final concentration of 0.2% (v/v) to induce expression of T4 lysozyme and culture aliquots of 2 mL were collected every hour (lanes labelled as 2, 3 and 4 corresponding to 1, 2 and 3 h culture collection after induction). […] Samples were analysed by 4-12% SDS-PAGE and fluorescent images were acquired using Typhoon Trio phosphoimager (GE Life Sciences) […]

SMILES: CC1=CC1COC(=O)NCCCC[C@H](N)C(=O)O (stereo partly drawn) [amino acid 3, N^ε-[((2-methylcycloprop-2-en-1-yl)methoxy)carbonyl]-L-lysine]
- yield of protein ([1]; SfGFP gene with amber codon at position 150, E. coli, PylRS/tRNACUA pair): 8 mg per litre of culture
- efficiency of site-specific incorporation into sfGFP ([1]; amber stop codon at position 150, E. coli, compared with 1): more efficient than 1
- time to substantial labelling after amino acid addition [2]: ≤ 1 h

— patent publication US10774039B2, “Cyclopropene amino acids and methods” (United Kingdom Research and Innovation, priority 2014, dated 2020)
